How the values were obtained:
CCK-B receptors = target: T1, CCK-B receptors (Cavia porcellus, UniProt H0VZC5); test: Measurement of Binding Affinity for CCK-B Receptors; parameters: species or system Hartley-strain guinea pig; conditions: inhibition of specific [3H]CCK-8 (1.0 nM) binding; guinea pig cerebral cortex; 25° C., 2 hours; pH 6.5; read-out: Ki (CCK-B receptors)
T1 construct: Cerebral cortices were removed from Hartley-strain guinea pigs, the cerebral cortices were homogenized; from tissue; host or cells: cerebral cortex of Hartley-strain guinea pigs, crude membrane pellet
T1 sequence (H0VZC5 1-426): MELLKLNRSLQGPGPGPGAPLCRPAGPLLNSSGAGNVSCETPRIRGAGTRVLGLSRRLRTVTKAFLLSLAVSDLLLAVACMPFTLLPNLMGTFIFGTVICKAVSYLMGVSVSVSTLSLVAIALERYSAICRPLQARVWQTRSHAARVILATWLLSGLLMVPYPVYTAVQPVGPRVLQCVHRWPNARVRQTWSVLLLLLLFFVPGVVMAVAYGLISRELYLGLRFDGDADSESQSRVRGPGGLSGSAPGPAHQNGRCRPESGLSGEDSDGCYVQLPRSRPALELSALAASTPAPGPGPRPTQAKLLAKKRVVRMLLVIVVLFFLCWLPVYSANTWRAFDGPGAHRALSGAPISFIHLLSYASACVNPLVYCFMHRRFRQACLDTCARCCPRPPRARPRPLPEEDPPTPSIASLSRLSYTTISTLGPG
Description: Cerebral cortices were removed from Hartley-strain guinea pigs, the cerebral cortices were homogenized in 50 volumes of 50 mM Tris-HCl buffer (pH7.4) and centrifuged at 50000×g for 10 minutes. The Tris-HCl buffer was added to the pellet and recentrifuged as above two times. The final pellet was rehomogenized in 10 mM HEPES buffer (pH 6.5, which hereinafter be abbreviated as "solvent") containing 5 mM MgCl2, 1 mM EGTA, 0.25 mg/ml bacitracin and 130 mM NaCl, and used as the receptor preparation.
Binding assay was measured as follows. Fifty μl of [^3 H]CCK-8 (at the final concentration of 1.0 nM) and 900 μl of the receptor preparation (800 μg protein/tube) were added to 50 μl of either solvent, CCK-8 (1 μM) or a test compound. These ware reacted at 25° C. for 2 hours. After the reaction, the mixture was filtrated through Whatman GF/B filter presoaked in 0.1% BSA. The filter was washed with 3 ml of ice-cold 50 mM Tris-HCl buffer (pH 7.4) four times, immediately after the filtration. The filter was soaked in the ACS-II scintillation cocktail for a day and radioactivity was measured using a liquid scintillation counter. Non-specific binding was defined as the radioactivity in the presence of 1 μM CCK-8. Specific binding was defined as the difference between total binding (used solvent without CCK-8) and non-specific binding. Inhibitor dissociation constant (Ki) of each test compound was determined from the inhibition of specific [^3 H]CCK-8 binding.

[1] = system: pentagastrin-stimulated acid secretion; test: Measurement of Inhibition of Pentagastrin-stimulated Acid Secretion; type: in vivo, male Sprague-Dawley (SD)-strain rats; conditions: intraduodenal, rat, acid output from 1 to 4 hours after administration, pentagastrin 15 μg/kg/hr
Description: Male Sprague-Dawley (SD)-strain rats were used. Each rat was operated to ligate the pylorus, and equip with a duodenal catheter and gastric fistula under a ether anesthesia. After the operation, each rat was placed in a Bollman-type cage and continuously infused pentagastrin (15 μg/kg/hr) through the tail vein. Test compounds were suspended in 0.5% aqueous sodium carboxymethylcellulose (which hereinafter be abbreviated as "vehicle"). Vehicle or test compound was administered through the intraduodenal catheter 1 hour after the beginning of pentagastrin infusion. Acidity of the collected gastric juice was measured by an automatic titillation device. Acid output was determined by multiplying the volume by the acidity of gastric juice. […] [formula]

CCK-A receptors = target: T2, CCK-A receptors (Cavia porcellus, UniProt Q63931); test: Measurement of Binding Affinity for CCK-A Receptors; parameters: species or system Hartley-strain guinea pig; conditions: inhibition of specific [3H]L-364,718 (0.2 nM) binding; guinea pig pancreas; 25° C., 2 hours; pH 6.5
T2 construct: Pancreases were removed from Hartley-strain guinea pigs, the pancreases were homogenized; from tissue; host or cells: pancreas of Hartley-strain guinea pigs, crude membrane pellet
T2 sequence (Q63931 1-430): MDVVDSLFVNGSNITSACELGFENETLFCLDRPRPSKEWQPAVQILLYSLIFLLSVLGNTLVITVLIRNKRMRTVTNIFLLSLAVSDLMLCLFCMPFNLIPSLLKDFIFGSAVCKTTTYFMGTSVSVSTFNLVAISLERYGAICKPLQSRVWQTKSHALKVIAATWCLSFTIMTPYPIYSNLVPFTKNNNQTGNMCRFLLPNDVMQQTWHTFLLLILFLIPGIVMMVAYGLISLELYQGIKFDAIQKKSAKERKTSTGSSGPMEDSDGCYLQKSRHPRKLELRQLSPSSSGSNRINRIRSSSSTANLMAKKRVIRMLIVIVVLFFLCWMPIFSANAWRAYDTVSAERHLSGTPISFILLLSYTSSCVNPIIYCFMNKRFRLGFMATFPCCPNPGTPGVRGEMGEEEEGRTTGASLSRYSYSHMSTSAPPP
Description: Pancreases were removed from Hartley-strain guinea pigs, the pancreases were homogenized in 40 volumes of 10 mM PIPES buffer (pH 6.5, which hereinafter be abbreviated as "solvent") containing 1 mM EGTA, 30 mM MgCl2, 0.02% bacitracin, 0.02% soybean trypsin inhibitor and 0.3 M sucrose. The homogenate was filtrated through gauze and centrifuged at 50000×g for 10 minutes. Solvent was added to the pellet and recentrifuged as above. The final pellet thus obtained was homogenized in 40 volumes of solvent and used as the receptor preparation.
Binding assay was measured as follows. Fifty μl of [^3 H]L-364, 718 (at the final concentration of 0.2 nM) and 900 μl of the receptor preparation (50 μg protein/tube) were added to 50 μl of solvent, or L-364, 718 (1 μM) or a test compound. This mixture was incubated at 25° C. for 2 hours. After the reaction, the mixture was filtrated through Whatman GF/B filter presoaked in 0.1% BSA (bovine serum albumin). The filter was washed with 3 ml of ice-cold 10 mM PIPES buffer (pH 6.5) three times, immediately after the filtration. The filter was soaked in the ACS-II scintillation cocktail for one day and radioactivity was measured using a liquid scintillation counter. Non-specific binding was defined as the radioactivity in the presence of 1 μM L-364, 718. Specific binding was defined as the difference between total binding (used solvent without L-364, 718) and non-specific binding. lnhibitor dissociation constant (Ki) of each test compound was determined from the inhibition of specific [^3 H]L-364, 718 binding.

`CC(C)(C)C(=O)CN1C(=O)C(NC(=O)Nc2cccc(C(=O)O)c2)CN(c2ccccc2)c2ccccc21` (racemic) [Example 70 (racemate), 3-[3-(1-tert-butylcarbonylmethyl-2-oxo-5-phenyl-1,3,4,5-tetrahydro-2H-1,5-benzodiazepin-3-yl)ureido]benzoic acid] was tested, and the Ki (CCK-B receptors) was 0.77 nM, the inhibition in vivo at 3 mg/kg [1] was 76.5% and the Ki (CCK-A receptors) was 303 nM.
`CC(C)(C)C(=O)CN1C(=O)C(NC(=O)Nc2cccc(C(=O)O)c2)CN(c2ccccc2)c2ccccc21` (single isomer, unassigned; (-)) [Example 70 (-form), (-)-3-[3-(1-tert-butylcarbonylmethyl-2-oxo-5-phenyl-1,3,4,5-tetrahydro-2H-1,5-benzodiazepin-3-yl)ureido]benzoic acid] was tested, and the Ki (CCK-B receptors) was 0.36 nM, the inhibition in vivo at 1 mg/kg [1] was 84.8% and the Ki (CCK-A receptors) was 255 nM.
Work on `CC(C)(C)C(=O)CN1C(=O)C(NC(=O)Nc2cccc(SCC(=O)O)c2)CN(c2ccccc2)c2ccccc21` (single isomer, unassigned; (-)) [Example 88 (-form)] yielded a Ki (CCK-B receptors) of 0.11 nM, an inhibition in vivo at 1 mg/kg [1] of 68.4% and a Ki (CCK-A receptors) of 16.7 nM.
In the case of `Cc1ccc2c(c1)N(CC(=O)C(C)(C)C)C(=O)C(NC(=O)Nc1cccc(C(=O)O)c1)CN2c1ccccc1` (single isomer, unassigned; (-)) [Example 97, (-)-3-[3-(1-tert-butylcarbonylmethyl-2-oxo-5-phenyl-8-methyl-1,3,4,5-tetrahydro-2H-1,5-benzodiazepin-3-yl)ureido]benzoic acid], the Ki (CCK-B receptors) is reported as 1.59 nM and the Ki (CCK-A receptors) is reported as 367 nM.
Work on `Cc1cccc(NC(=O)NC2CN(C(=O)C(C)(C)C)c3ccccc3N(CC(=O)c3ccccc3C)C2=O)c1` (stereo not shown) [Example 1, 1-[1-(2-toluoylmethyl)-2-oxo-5-pivaloyl-1,3,4,5-tetrahydro-2H-1,5-benzodiazepin-3-yl]-3-(3-methylphenyl)urea] yielded a Ki (CCK-B receptors) of 6.47 nM and an inhibition in vivo at 30 mg/kg [1] of 59.4%.
Work on `CC(C)(C)C(=O)CN1C(=O)C(NC(=O)Nc2cccc(C(=O)O)c2)CN(C(=O)C(C)(C)C)c2ccccc21` (stereo not shown) [Example 10, 3-[3-(1-tert-butylcarbonylmethyl-2-oxo-5-pivaloyl-1,3,4,5-tetrahydro-2H-1,5-benzodiazepin-3-yl)ureido]benzoic acid] yielded a Ki (CCK-B receptors) of 6.87 nM and an inhibition in vivo at 10 mg/kg ([1]; 10 mg/kg, read-out: % Inhibition of acid output) of 67.1%.
With `Cc1cccc(NC(=O)NC2CN(C(=O)C3CCCCC3)c3ccccc3N(CC(=O)c3ccccc3C)C2=O)c1` (stereo not shown) [Example 14, 1-[1-(2-toluoylmethyl)-2-oxo-5-cyclohexylcarbonyl-1,3,4,5-tetrahydro-2H-1,5-benzodiazepin-3-yl]-3-(3-methylphenyl)urea] the Ki (CCK-A receptors) was 13.2 nM.
For `Cc1cccc(NC(=O)NC2CN(C(=O)C3CCCC3)c3ccccc3N(CC(=O)c3ccccc3C)C2=O)c1` (stereo not shown) [Example 28, 1-[1-(2-toluoylmethyl)-2-oxo-5-cyclopentylcarbonyl-1,3,4,5-tetrahydro-2H-1,5-benzodiazepin-3-yl]-3-(3-methylphenyl)urea], the Ki (CCK-A receptors) was 14.3 nM.
`CC(C)(C)OC(=O)CN1C(=O)C(NC(=O)Nc2cccc(C(=O)O)c2)CN(c2ccccc2)c2ccccc21` (stereo not shown) [Example 80, 3-[3-[1-tert-butoxycarbonylmethyl-2-oxo-5-phenyl-1,3,4,5-tetrahydro-2H-1,5-benzodiazepin-3-yl]ureido]benzoic acid] gave a Ki (CCK-B receptors) of 2.62 nM and an inhibition in vivo at 3 mg/kg [1] of 45.4%.
For `Cc1ccc2c(c1)N(CC(=O)c1ccccc1C)C(=O)C(NC(=O)Nc1cccc(C(=O)O)c1)CN2C(=O)C(C)(C)CCl` (stereo not shown) [Example 94, 3-[3-[1-(2-toluoylmethyl)-2-oxo-5-(3-chloro-2,2-dimethylpropionyl)-8-methyl-1,3,4,5-tetrahydro-2H-1,5-benzodiazepin-3-yl]ureido]benzoic acid], the Ki (CCK-B receptors) was 1.62 nM and the inhibition in vivo at 30 mg/kg [1] was 93.3%.
In the case of `Cc1ccc2c(c1)N(CC(=O)C(C)(C)C)C(=O)C(NC(=O)Nc1cccc(C(=O)O)c1)CN2c1ccccc1` (stereo not shown) [Example 95, 3-[3-(1-tert-butylcarbonylmethyl-2-oxo-5-phenyl-8-methyl-1,3,4,5-tetrahydro-2H-1,5-benzodiazepin-3-yl]ureido]benzoic acid], the Ki (CCK-B receptors) is reported as 2.26 nM and the inhibition in vivo at 1 mg/kg [1] is reported as 49%.
Work on `CC(=O)N1CC(NC(=O)Nc2cccc(C(=O)O)c2)C(=O)N(CC(=O)c2ccccc2C)c2cc(C)ccc21` (stereo not shown) [Example 111, 3-[3-[1-(2-toluoylmethyl)-2-oxo-5-acetyl-8-methyl-1,3,4,5-tetrahydro-2H-1,5-benzodiazepin-3-yl]ureido]benzoic acid] yielded a Ki (CCK-A receptors) of 6.34 nM.
`Cc1ccc2c(c1)N(CC(=O)c1ccco1)C(=O)C(NC(=O)Nc1cccc(C(=O)O)c1)CN2C(=O)C(C)(C)C` (stereo not shown) [Example 114, 3-[3-[1-(furan-2-yl)carbonylmethyl-2-oxo-5-pivaloyl-8-methyl-1,3,4,5-tetrahydro-2H-1,5-benzodiazepin-3-yl]ureido]benzoic acid] was tested, and the Ki (CCK-B receptors) was 9.43 nM and the inhibition in vivo at 30 mg/kg [1] was 89.7%.
With `CC(C)(C)C(=O)CN1C(=O)C(NC(=O)Nc2cccc(C(=O)O)c2)CN(C2CCCCC2)c2ccccc21` (stereo not shown) [Example 121, 3-[3-(1-tert-butylcarbonylmethyl-2-oxo-5-cyclohexyl-1,3,4,5-tetrahydro-2H-1,5-benzodiazepin-3-yl)ureido]benzoic acid] the Ki (CCK-B receptors) was 1.2 nM and the inhibition in vivo at 0.3 mg/kg ([1]; 0.3 mg/kg) was 47%.
Work on `CC(C)(C)C(=O)CN1C(=O)[C@H](NC(=O)Nc2cccc(C(=O)O)c2)CN(C2CCCCC2)c2ccccc21` [Example 143, (R)-(-)-3-[3-(1-tert-butylcarbonylmethyl-2-oxo-5-cyclohexyl-1,3,4,5-tetrahydro-2H-1,5-benzodiazepin-3-yl)ureido]benzoic acid] yielded a Ki (CCK-B receptors) of 0.63 nM and an inhibition in vivo at 0.1 mg/kg ([1]; 0.1 mg/kg) of 54.6%.
`CC(C)(C)C(=O)CN1C(=O)[C@H](NC(=O)Nc2cccc(C(=O)NS(C)(=O)=O)c2)CN(C2CCCCC2)c2ccccc21` [Example 168, (R)-(-)-1-(1-tert-butylcarbonylmethyl-2-oxo-5-cyclohexyl-1,3,4,5-tetrahydro-2H-1,5-benzodiazepin-3-yl)-3-(3-methylsulfonylaminocarbonylphenyl)urea] showed a Ki (CCK-B receptors) of 0.21 nM and an inhibition in vivo at 1 mg/kg [1] of 58.9%.
For `CC(C)(C)C(=O)CN1C(=O)[C@H](NC(=O)Nc2cccc(SCC(=O)O)c2)CN(C2CCCCC2)c2ccccc21` [Example 169, (R)-(-)-3-[3-(1-tert-butylcarbonylmethyl-2-oxo-5-cyclohexyl-1,3,4,5-tetrahydro-2H-1,5-benzodiazepin-3-yl)ureido]phenylthioacetic acid], the Ki (CCK-B receptors) was 0.1 nM and the inhibition in vivo at 1 mg/kg [1] was 75.2%.
